Results reported in patent US9587187B2, “Alkyl trityl phenyl ethers” (Rohm and Haas Company, priority 2013, dated 2017).

Test: Solubility studies of alkyl trityl phenyl ethers in solvents at −10° C.
Format: physicochemical
Settings: freezer at −10° C., checked daily for crystallization
Method: Solubility Studies: The solubility properties of the alkyl trityl phenyl ethers were determined by mixing 0.1 grams of test sample with 0.9 grams of solvent. The mixtures were warmed to 60° C. for a few minutes to make homogeneous solutions. The solutions were cooled back to room temperature, and then they were placed into a freezer at −10° C. The solutions were checked daily to see if crystallization had occurred. The solvents evaluated were ADVASOL 200H (mixed aromatics solvent from Advanced Aromatics), ADVASOL 200H ND (naphthalene-depleted mixed aromatics solvent from Advanced Aromatics), cyclohexanone, and o-sec-butyl phenol (OSBP).

[1] = 10 wt.% alkyl trityl phenyl ether in 200H - OSBP (75:25, w:w)
[2] = 10 wt.% alkyl trityl phenyl ether in 200H - cyclohexanone (75:25, w:w)
[3] = 10 wt.% alkyl trityl phenyl ether in 200H ND - OSBP (75:25, w:w)
[4] = 10 wt.% alkyl trityl phenyl ether in 200H ND - cyclohexanone (75:25, w:w)

| Solubility at −10° C., Days [1] | Solubility at −10° C., Days [2] | Solubility at −10° C., Days [3] | Solubility at −10° C., Days [4] | Solubility at −10° C., Days (10 wt.% alkyl trityl phenyl ether in 200H (ADVASOL 200H mixed aromatics solvent)) | Solubility at −10° C., Days (10 wt.% alkyl trityl phenyl ether in 200H ND (naphthalene-depleted mixed aromatics solvent)) | Structure (SMILES) |
| --- | --- | --- | --- | --- | --- | --- |
| Soluble after 76 days | Soluble after 7 days | Soluble after 76 days | Soluble after 7 days |  |  | CCCCCCOc1ccc(C(c2ccccc2)(c2ccccc2)c2ccc(C)cc2)cc1OCCCCCC [pM3,4-6, ((3,4-Bis(hexyloxy)phenyl)(p-tolyl)methylene)dibenzene] |
| Soluble after 7 days | Soluble after 7 days | Soluble after 7 days | Soluble after 7 days | Soluble after 7 days | Soluble after 7 days | CCCCCCCCCCOc1ccc(C(c2ccccc2)(c2ccccc2)c2ccc(C)cc2)cc1C(C)CC (stereo not drawn) [pMS4-10] |
| Soluble after 102 | Soluble after 102 |  |  |  |  | CCCCCCCCCCOc1ccc(C(c2ccccc2)(c2cccc(C)c2)c2cccc(C)c2)cc1C(C)CC (stereo not drawn) [mmMS4-10] |
